Test results taken from patent publication US20080118591A1, “Bactericidal Formulations” (priority 2004, published 2008).

Legend:
E. coli = assay: Rapid bactericidal activity of liquid wash formulations; format: cell-based; settings: in formulation IV, 30 s
Experimental: (§1) A control of each formulation is left un-perfumed. The rapid bactericidal activity of these formulations is then tested as follows: • The products are diluted 1:1 in hard water as defined in the European standard EN 1276. This mimics conditions of use on wet hands or wet surfaces in commonly used water. • 500 μl of the product is mixed with 25 μl of a bacterial inoculum containing 2×10^8 cfu/ml (colony forming units). • The mixture is incubated for 30 seconds at 37° C. • 20 μl of the mixture is removed and added to 180 μl neutralising solution (containing 3 g lecithin, 30 g Tween® 80, 5 g sodium thiosulfate, 1 g histidine, 30 g saponin, 8.5 g sodium chloride, 1 g tryptone and 1000 ml water). • The mixture with neutraliser is incubated for 1 min • Serial dilutions of the mixture with neutralising solution are made, and aliquots of these are added to Petri-dishes and embedded in tryptic soy agar containing 0.5% Tween® 80 to inactivate any residual antibacterial compounds. • Bacterial numbers are counted after 24 h incubation at 37° C. and compared to control samples. • Reduction in bacterial viability is determined as described in example 1
Formulations are tested in a dilution of 1:1 and with 30 seconds contact time to bacteria (E. coli). […]

S. aureus = assay: as above; format: cell-based; settings: in formulation IV, 30 s
Experimental: as §1, with “The above formulations are supplemented with 0.9% (w/v) of the perfume composition A of example 2. A” for “A”
Formulation IV of example 3 is supplemented with different concentrations of phenolic biocides and different concentrations of the perfume composition A of example 2. The reduction in viability of various test organisms is determined at different dilutions of the formulation (1:1 or 1:3 to simulate conditions of use) after 30 seconds contact time.

Row | Structure (SMILES) | rapid bactericidal effect, E. coli 1:1 (E. coli; Biocide 0.2%, Perfume 0%) | rapid bactericidal effect, E. coli 1:3 (E. coli; Biocide 0.2%, Perfume 0%) | rapid bactericidal effect, E. coli 1:1 (E. coli; Biocide 0.2%, Perfume 0.45%) | rapid bactericidal effect, E. coli 1:3 (E. coli; Biocide 0.2%, Perfume 0.45%) | rapid bactericidal effect, S. aureus conc. (S. aureus; Biocide 0.2%, Perfume 0%) | rapid bactericidal effect, S. aureus conc. (S. aureus; Biocide 0.2%, Perfume 0.45%) | rapid bactericidal effect, E. coli 1:1 (E. coli; Biocide 0.4%, Perfume 0%) | rapid bactericidal effect, E. coli 1:3 (E. coli; Biocide 0.4%, Perfume 0%) | rapid bactericidal effect, E. coli 1:1 (E. coli; Biocide 0.4%, Perfume 0.45%) | rapid bactericidal effect, E. coli 1:3 (E. coli; Biocide 0.4%, Perfume 0.45%) | rapid bactericidal effect, S. aureus conc. (S. aureus; Biocide 0.4%, Perfume 0%) | rapid bactericidal effect, S. aureus conc. (S. aureus; Biocide 0.4%, Perfume 0.45%)
1 | Oc1cc(Cl)ccc1Oc1ccc(Cl)cc1Cl [Triclosan, 2,4,4′-trichloro-2′-hydroxy-diphenylether] | 1 | 1 | >250 | 2 | 12 | 31 |  |  |  |  |  | 
2 | Oc1ccc(Cl)cc1Cc1ccccc1 [2-benzyl-4-chlorphenol] | 1 | 1 | >250 | 2 | 1 | 1 | 18 | 1 | >250 | 4 | 3 | 21
